Data taken from US7098215B2, “Nitrogenous compounds and antiviral drugs containing the same” (Kureha Chemical Industry Co., Ltd., priority 2000, dated 2006).
pEC50: −log10 of the molar value.

Tests used:
[1] = tested on: ICR male mice; experiment: Acute toxicity in ICR mice, intraperitoneal administration; assay type: in vivo; conditions: 3 per group, 50 mg/kg intraperitoneally, twice a day, for four days, number of dead animals after 5 days
Protocol: Acute toxicity of the antiviral drug was examined. Three groups of 7 week-old, ICR male mice, each group consisting of 3 mice, were bred for one week. The compounds prepared in the Examples, dissolved in a physiological saline solution or distilled water, were intraperitoneally administered at a dose of 50 mg/kg, twice a day, for four days. After 5 days, the number of dead animals was examined.

[2] = tested on: HIV-1IIIB infected MT-4 cells; experiment: Anti-HIV activity: protection of HIV-1IIIB infected MT-4 cells, MTT method; assay type: cell-based; conditions: MOI 0.01, culture for 5 days, concentration inhibiting 50% of cytotoxicity due to HIV infection
Protocol: HIV-1IIIB infected MT-4 cells were added to 96-well microtiter plates (3.0×10^4/well, MOI (Multiplicity of infection): 0.01), together with test compounds at different concentrations immediately after the infection. After culture for 5 days in a carbon dioxide incubator at 37° C., the number of surviving cells was counted by MTT (tetrazolium) method (Pawels et al., J. Virol. Methods, 20, 309-321, 1988).

[3] = tested on: HIV-1 (NL4-3); experiment: Antiviral effect in SCID mice transplanted with human PBMCs and infected with HIV-1 (NL4-3), HIV-1 p24 by ELISA; assay type: in vivo; conditions: SCID mice with human PBMCs, virus NL4-3, 0.1 ml/2 mM solution/mouse intraperitoneally, 12 days after infection
Protocol: The effect of the antiviral drug on SCID mice (immunodeficiency mice) was examined.
TMβ-1 (rat anti-mouse IL-2Rβ monoclonal antibody) was intraperitoneally administered to C.B-17 SCID mice (8 weeks-old, female, provided by CLEA Japan, Inc.) in the amount of 1 mg/mouse to exterminate NK cells. After 2 days, 1.5×10^6 human PBMCs were transplanted in the spleen together with human rIL-4 (0.2 μg/mouse). On the same day, the compound No. 86 (0.1 ml/2 mM solution/mouse) or a medium (0.1 ml) (control) was intraperitoneally administered. After 1 day, HIV-1 (NL4-3) (0.2 ml/1×10^4 TCID50/ml) was intraperitoneally administered to cause virus infection. The same amount of the compound No. 86 (or the medium) was intraperitoneally administered on each of 4 consecutive days thereafter. rIL-4 (0.2 μg) was also intraperitoneally administered 4 days after infection. 12 days after infection, blood plasma and abdominal cavity washing solutions were collected to measure the amount of HIV-1 P^24 using an ELISA kit.

O=C(N[C@@H](CCCNC1CCCc2cccnc21)C(=O)NCc1cccc2ccccc12)c1ccc(CNCc2ncc[nH]2)cc1 (stereo partly drawn) [Compound No. 39, (2S)-2-(4-((N-imidazol-2-ylmethyl)aminomethyl)benzoylamino)-5-(5,6,7,8-tetrahydroquinolin-8-ylamino)valeric acid 1-naphthalenemethylamide]
Dead mouse [1]: 0/3

O=C(N[C@@H](CCCNC1CCCc2cccnc21)C(=O)NCc1cccc2ccccc12)c1ccc(CNCc2ncc[nH]2)c2ccccc12 (stereo partly drawn) [Compound No. 41, (2S)-2-(4-((N-imidazol-2-ylmethyl)aminomethyl)naphthoylamino)-5-(5,6,7,8-tetrahydroquinolin-8-ylamino)valeric acid 1-naphthalenemethylamide]
pEC50 [2]: 7.46
Dead mouse [1]: 0/3

C[C@H](NC(=O)[C@H](CCCNC(=N)N)NC(=O)c1ccc(CNCc2ncc[nH]2)c2ccccc12)c1cccc2ccccc12 [Compound No. 49, N^α-(4-(imidazol-2-ylmethyl)aminomethylnaphthoyl)-L-arginine(1′S)-(1′-(1-naphthyl)ethyl)amide]
pEC50 [2]: 7.07
Dead mouse [1]: 0/3

C[C@H](NC(=O)[C@H](CCCNC1CCCc2cccnc21)NC(=O)c1ccc(CNCc2ncc[nH]2)c2ccccc12)c1cccc2ccccc12 (some centres unmarked) [Compound No. 57]
pEC50 [2]: 7.09
Dead mouse [1]: 0/3

O=C(N[C@@H](CCCNC1CCCc2cccnc21)C(=O)NCc1cccc2ccccc12)c1ccc(CNCc2ccccn2)cc1 (stereo partly drawn) [Compound No. 65, (2S)-2-(4-(N-2-picolylaminomethyl)benzoylamino)-5-((5,6,7,8-tetrahydroquinolin-8-yl)amino)valeric acid 1-naphthalenemethylamide]
pEC50 [2]: 7.03
Dead mouse [1]: 0/3

C[C@H](NC(=O)[C@H](CCCN=C(N)N)NC(=O)c1ccc(CNCc2ccccn2)cc1)c1cccc2ccccc12 [Compound No. 86, N^α-(4-(N-2-picolylaminomethyl)benzoyl)-L-arginine (1′S)-1′-(1-naphthyl)ethylamide]
pEC50 [2]: 7.37
p24 level Abdominal cavity washing solution [3]: <5 pg/mL
p24 level Plasma [3]: <5 pg/mL
Dead mouse [1]: 0/3

C[C@H](NC(=O)[C@H](CCCNC1CCCc2cccnc21)NC(=O)c1ccc(CNCc2ccccn2)cc1)c1cccc2ccccc12 (stereo partly drawn) [Compound No. 91, (2S)-2-(4-(N-2-picolylaminomethyl)benzoyl)amino-5-(5,6,7,8-tetrahydroquinolin-8-yl)aminovaleric acid (1′S)-1′-(1-naphthyl)ethylamide]
pEC50 [2]: 6.86

O=C(N[C@@H](CCCNC1CCCc2cccnc21)C(=O)NCCc1c[nH]c2ccccc12)c1ccc(CNCc2ccccn2)c2ccccc12 (stereo partly drawn) [Compound No. 92, (2S)-2-(4-(N-2-picolylaminomethyl)naphthoyl)amino-5-(5,6,7,8-tetrahydroquinolin-8-yl)aminovaleric acid 2-(3-indolyl)ethylamide]
Dead mouse [1]: 0/3

C[C@H](NC(=O)[C@H](CCCNC(=N)N)NC(=O)c1ccc(CNCc2ncc[nH]2)cc1)c1cccc2ccccc12 [Compound No. 95, N^α-4-(N-2-(imidazol-2-ylmethyl)aminomethyl)benzoyl-L-arginine (1′S)-1′-(1-naphthyl)ethylamide]
pEC50 [2]: 6.76

Cn1ccnc1CNCc1ccc(C(=O)N[C@@H](CCCNC2CCCc3cccnc32)C(=O)NCc2cccc3ccccc23)cc1 (stereo partly drawn) [Compound No. 96, (2S)-2-((1-methylimidazol-2-ylmethyl)aminomethyl)benzoylamino-5-(5,6,7,8-tetrahydroquinolyl-8-yl)aminovaleric acid 1-naphthalenemethyleneamide]
pEC50 [2]: 7.47
Dead mouse [1]: 0/3

C[C@H](NC(=O)[C@H](CCCNC(=N)N)NC(=O)c1ccc(CNCc2nccn2C)c2ccccc12)c1cccc2ccccc12 [Compound No. 97, N^α-(4-((N-(1-methylimidazole-2-ylmethyl)amino)methyl)naphthalene-1-carbonyl)-L-arginine (1′S)-1′-(1-naphthyl)ethylamide]
Dead mouse [1]: 0/3

C[C@H](NC(=O)[C@H](CCCNC(=N)N)NC(=O)c1ccc(CNCc2ccccn2)c2ccccc12)c1cccc2ccccc12 [Compound No. 99, N^α-(4-(N-2-picolylaminomethyl)naphthoyl)-L-arginine (1′S)-1′-(1-naphthyl)ethylamide]
Dead mouse [1]: 0/3

C[C@H](NC(=O)[C@H](CCCNC1CCCc2cccnc21)NC(=O)c1ccc(CNCc2ncc[nH]2)cc1)c1cccc2ccccc12 (some centres unmarked) [Compound No. 106]
pEC50 [2]: 7.60
Dead mouse [1]: 0/3

C[C@H](NC(=O)[C@H](CCCNC1CCCc2cccnc21)NC(=O)c1ccc(CNCc2nccn2C)cc1)c1cccc2ccccc12 (some centres unmarked) [Compound No. 107]
pEC50 [2]: 7.46
Dead mouse [1]: 0/3

C[C@H](NC(=O)[C@H](CCCNC1=NCCN1)NC(=O)c1ccc(CNCc2ncc[nH]2)cc1)c1cccc2ccccc12 [Compound No. 110, (S)-2-(4-((N-imidazol-2-ylmethyl)aminomethyl)benzoyl)amino-5-(4,5-dihydroimidazol-2-yl)aminovaleric acid (1′S)-1′-(1-naphthyl)ethylamide]
pEC50 [2]: 6.46

C[C@H](NC(=O)[C@H](CCCNC1=NCCCN1)NC(=O)c1ccc(CNCc2ncc[nH]2)cc1)c1cccc2ccccc12 [Compound No. 112, (S)-2-(4-((N-imidazol-2-ylmethyl)aminomethyl)benzoyl)amino-5-(3,4,5,6-tetrahydropyrimidine-2-yl)aminovaleric acid (1′S)-1′-(1-naphthyl)ethylamide]
pEC50 [2]: 6.06
